Experimental data published in article PMC9295577, “Parasite Viability as a Measure of In Vivo Drug Activity in Preclinical and Early Clinical Antimalarial Drug Assessment” (Antimicrobial Agents and Chemotherapy, 2022).
Values after ≈ are worked out from the molar mass of the structure shown. Values joined by “and” are separate entries in the source; they are usually repeats but may differ in a detail not shown here. Equal entries are not always repeated. Where two headings read alike, the source gives them in different places.

Experiments:
[1] = mouse, literature, cited from earlier work
[2] = DHA pharmacokinetics in human volunteer infection study after artesunate; type: in vivo, humans
From the text: (§1) The human data used in this study were obtained from a randomized clinical trial (ACTRN12617001394336) ([24]) and the associated exploratory viability study ([19]). Briefly, 5 volunteers were infected by intravenous injection of blood-stage 3D7 P. falciparum parasites.
Briefly, the model is defined as follows: (2) C(t)=D×ka/Vd/F(ka−CL/Vd) ×[exp(−CL/Vd×(t−tlag))− exp(−ka×(t−tlag)) ], where Vd/F (L) is the apparent volume of distribution, tlag (h) is the lag time between administration and absorption, CL/F (L/h) is the apparent drug clearance, ka is the rate of drug absorption, and D is the dose given to each subject. The model was fit with and without a lag for the absorption. The absorption was too fast to be observed in mice, and the one-compartment open model without a lag term fit the murine data best.
A one-compartment model with a first-order absorption and a lag, fit the human data best.
We used a least-square approach when fitting the ex vivo regrowth assay to estimate the concentration of viable parasites. […] When fitting the pharmacodynamic model, we first fit the pretreatment parasite concentration data for each human subject with the parasite growth model (equation 3) and estimated the distribution of parasite stages at the time of treatment and the parasite multiplication factor (PMF) when drug is not present. For the mice, pretreatment parasitemia curves were not detailed enough to allow fitting to estimate parasite life stage distributions and PM: instead, we estimated the PMF for each mouse from the in vivo recrudescence curves after treatment (fitting a tobit regression model using R package censReg) (Fig. 3), and we estimated the life stage distribution using the life stages from flow cytometric analysis (outlined in section C in the supplemental material). […] We fit this model to all data on parasite viability and total circulating parasitemia from mice and humans simultaneously with a variety of parameters constrained to be equivalent between mice and humans, in order to test which parameters, if any, were required to be different between the two hosts in order to best explain the data. We compared these models using the likelihood ratio test (for nested models) and the Akaike information criterion (AIC). A model with fewer parameters was deemed a better fit of the data unless the likelihood ratio test yielded a P value of […] (for nested models) or the difference in AIC of >10 for nonnested models.

[3] = test system: P. falciparum 3D7; assay: PK/PD model of parasite killing and clearance, parameters for mice; type: in vivo
From the text: (§2) To model the drug action in both mice and humans, we used a pharmacodynamic (PD) model in which viable parasites are growing at rate g (per hour) and killed at rate κ (per hour). The dead parasites are then removed at a separate rate, δ (per hour). […] The latter observation is consistent with observations of slower parasite clearance after drug treatment in the NSG mouse model compared with human infection ([27]).
(§3) To model the cyclical growth of P. falciparum parasites, we used a previously published age-structured model of parasite growth, which tracks the distribution of parasite stages developing in time ([40]): (3) vT(a,T)+va(a,T)=0 where, v is the density of parasites at time T postinfection and age a. In this equation, subscripts indicate the partial derivative of v with respect to the subscript variable. […] The constant PMF is the parasite multiplication factor. Since parasites older than approximately 24 h of age are sequestered and no longer in circulation, the total number of circulating viable parasites (V) at any time is given by V(T)= ∫0asv(a,T)da where as is the age that parasites sequester. Importantly, as has been reported previously, the Plasmodium falciparum 3D7 strain used in these studies has an approximately 40-h blood-stage cycle ([41], [42]), so the maximum age of parasites is taken to be A=40 h.
(§4) We extended an existing age-structured model of parasite growth ([43]) to include drug killing of parasites. […] The model has two parasite compartments: one for viable parasites and one for nonviable parasites. The model of drug killing of viable parasites and host removal of nonviable parasites after treatment is defined as follows: vt(a,t)+va(a,t)= −κ(a,C(t))×v(a,t) (4) ut (a,t)=κ(a,C(t))×v(a,t)−δ×u(a,t) for a>0 where v(a,t) and u(a,t) are the density of viable and nonviable parasites of age a at time t posttreatment, respectively. […] The parameter δ is the rate of host removal of nonviable parasites. The total concentrations of circulating V(t) viable and nonviable U(t) parasites at time t are defined as follows: V(t)= ∫0aSv(a,t)da U(t)= ∫0aSu(a,t)da where as is the parasite sequestration age. We assume that the parasites are not sequestering in mice, in which case, as=A (the length of the parasite blood-stage life cycle), and that parasites sequester at as=A/2 in humans ([46]).
(§5) The maximum killing rate m(a) is a function of the parasite age since very-late-stage parasites are not killed by treatment ([47]).
(§6) As in previous studies, the age above which late-stage parasites survive treatment (aschiz) is taken to be the final 4 h of a 48-h life cycle ([48], [49]). The malaria parasite strain used in this study has a 40-h life cycle ([42], [46]), and we take aschiz as the last 4/48th of the life cycle. […]

[4] = DHA pharmacokinetics in NSG mice after oral artesunate, one-compartment model; type: in vivo; details: mouse, whole blood
Protocol: A volume of 25 μL of whole-blood samples was collected via the tail vein from individual mice at 0.75, 1.5, 3, 8, 26, 50, and 74 h from the 50-mg/kg 4-daily-dose group and at 0.75, 1.5, 3, and 8 h from the 200-mg/kg single-dose group. […] Samples were vortexed for 20 s before being stored at −80°C.
Briefly, the model is defined as follows: (2) C(t)=D×ka/Vd/F(ka−CL/Vd) ×[exp⁡(−CL/Vd×(t−tlag))− exp⁡(−ka×(t−tlag)) ], where Vd/F (L) is the apparent volume of distribution, tlag (h) is the lag time between administration and absorption, CL/F (L/h) is the apparent drug clearance, ka is the rate of drug absorption, and D is the dose given to each subject. The model was fit with and without a lag for the absorption.
We used a least-square approach when fitting the ex vivo regrowth assay to estimate the concentration of viable parasites. […] When fitting the pharmacodynamic model, we first fit the pretreatment parasite concentration data for each human subject with the parasite growth model (equation 3) and estimated the distribution of parasite stages at the time of treatment and the parasite multiplication factor (PMF) when drug is not present. […]

[5] = test system: P. falciparum 3D7; assay: PK/PD model of parasite killing, parameters common to humans and mice; type: in vivo, Plasmodium falciparum
From the text: as §2, §3, §4, §5, §6

[6] = design: method as in earlier work; details: humans, non-compartmental analysis, population mean (CV), ref 4 (supplement; Watts et al. 2020), cited from earlier work
[7] = test system: P. falciparum 3D7; assay: PK/PD model of parasite killing and clearance, parameters for humans; type: in vivo; details: human data from ref 19
From the text: as §2, §1, §3, §4
The maximum killing rate m(a) is a function of the parasite age since very-late-stage parasites are not killed by treatment ([47]). […]

[8] = test system: P. falciparum Pf3D7^0087/N9; assay: Artesunate efficacy in the murine P. falciparum NSG model: parasitemia and parasite viability (ex vivo regrowth assay); design: species or system Plasmodium falciparum; details: NSG mice, first 24 h, single oral dose 200 vs 50 mg/kg
Protocol: Compound efficacy was assessed in the murine P. falciparum NSG model, as described by Jimenez-Diaz et al. ([38]). […] These mice had been engrafted with human erythrocytes 14 days earlier (generously provided by the Blood Bank in Zürich, Switzerland). Prior to compound treatment, mice were intravenously infected with 2 × 10^5 P. falciparum Pf3D7^0087/N9-infected erythrocytes (day 0). On day 3 after infection, mice were randomly allocated to treatments that were administered orally. Parasitemia was measured by microscopy. Chimerism was monitored by flow cytometry using anti-murine erythrocyte TER119 monoclonal antibody (Pharmingen, San Diego, CA) and SYTO-16 and then analyzed by flow cytometry in serial blood samples (2 μL) collected every day until the completion of the experiment. Parasite recrudescence was detected by microscopy.
Prior to each treatment and after 8, 24, 48, 72, 96 and 168 h, 40 μL of blood was collected using a heparinized capillary and transferred into 10 mL of 37°C preheated medium. The suspension was centrifuged (5 min at 290 × g) and the supernatant discarded.
For the ex vivo regrowth assay (ERA), 10-μL pellets of the washed mouse blood sample were processed as described above for the IRA.
To estimate parasite viability, we fitted the data from the regrowth assay with a mathematical model of parasite growth as described in reference [19]. […]

[9] = assumes average mouse weight of 25 g
[10] = humans, one compartment model, population estimate (95% CI)
[11] = model with EC50 and γ common to humans and mice
[12] = model with Emax and γ common to humans and mice

## C[C@H]1[C@@H](O)O[C@@H]2O[C@@]3(C)CC[C@H]4[C@H](C)CC[C@@H]1[C@@]24OO3 [DHA, dihydroartemisinin]
[1]; [9]
  CL/F, apparent clearance: 1.53 L/h
  Vd/F, apparent volume of distribution: 0.91 L
[1]
  CL/F, apparent clearance: 1.98 L/h
  Vd/F, apparent volume of distribution: 0.85 L
  t1/2, half-clearance time: 0.41 ([50]) h
[2]; human, blood, 2 mg/kg, humans, computed from CL and Vd, read-out: t1/2, half-clearance time (converted)
  half-life: 27 min
[2]; human, blood, 2 mg/kg, read-out: Vd/F, apparent volume of distribution
  Vd/F: 166 L
[2]; humans (n = 5), artesunate 2 mg/kg, population estimate (95% CI), one-compartment model fitted to data from reference 24
  CL/F, apparent clearance: 254.5 L/h and 254.5 (144.5, 364.5) L/h
[2]; humans, one compartment model, average of volunteers, bootstrap confidence interval
  Dose-Normalised AUC: 5.34 (3.83, 6.52) μg h L^-1 mg^-1
[2]; [10]
  ka, absorption rate: 2.29 h⁻¹
  tlag, lag-time: 0.62 (0.4, 0.83) h
[3]; Plasmodium falciparum, 3D7, model with Emax and γ common to humans and mice, read-out: EC50M, drug concentration to reach the half-maximum killing rate in mice
  EC50: 1.32 ng/mL (≈ 4.64 nM)
[3]; [11]
  EmaxM, maximum killing rate in mice: 0.74 h⁻¹
[4]; mice, computed from CL and Vd, read-out: t1/2, half-clearance time (converted)
  half-life: 24 min
[4]; read-out: Vd/F, apparent volume of distribution
  Vd/F: 0.55 L
[5]; Plasmodium falciparum, 3D7, model with EC50 and γ common to humans and mice, different Emax, read-out: EC50, drug concentration to reach the half-maximum killing rate
  EC50: 0.0074 ng/mL (≈ 0.026 nM)
[5]; [11]
  γ, Hill coefficient: 0.70
[5]; [12]
  γ, Hill coefficient: 0.41
[5]; model with Emax and γ common to humans and mice, different EC50s
  Emax, maximum killing rate: 1.34 h⁻¹
[6]; ART-R infection (n = 13)
  V/F, apparent volume of distribution: 221.1 (53.6) L
[6]; ART-R infection
  Dose-Normalised AUC: 6.3 (89.9) μg h L^-1 mg^-1
[6]; ART-S infection (n = 9)
  V/F, apparent volume of distribution: 310.3 (119.4) L
[6]; ART-S infection
  Dose-Normalised AUC: 7.5 (33.2) μg h L^-1 mg^-1
[7]; Plasmodium falciparum, 3D7, model with Emax and γ common to humans and mice, read-out: EC50H, drug concentration to reach the half-maximum killing rate in humans
  EC50: 0.0025 ng/mL (≈ 0.00879 nM)
[7]; [11]
  EmaxH, maximum killing rate in humans: 1.45 h⁻¹

## C[C@H]1[C@H](OC(=O)CCC(=O)O)O[C@@H]2O[C@@]3(C)CC[C@H]4[C@H](C)CC[C@@H]1[C@@]24OO3 [artesunate]
[3]; [11]
  δM, dead parasite clearance rate in mice: 0.097 h⁻¹
[3]; [12]
  δM, dead parasite clearance rate in mice: 0.097 h⁻¹
[8]
  increase in the decline in total parasitemia on increasing dose from 50 to 200 mg/kg: 2.2 fold
[8]; regrowth assay
  increase in the decline in viability on increasing dose from 50 to 200 mg/kg: 23.9 fold
[7]; [11]
  δH, dead parasite clearance rate in humans: 0.18 h⁻¹
[7]; [12]
  δH, dead parasite clearance rate in humans: 0.18 h⁻¹
